The values that follow come from ChEMBL document CHEMBL4321794, “Discovery and Optimization of 2-Arylquinazolin-4-ones into a Potent and Selective Tankyrase Inhibitor Modulating Wnt Pathway Activity” (J Med Chem, 2019).

Converted amounts (≈) assume the structure as drawn. Bounds are passed on as bounds.

Data set [1] in a line: Intrinsic clearance in mouse liver microsomes assessed per mg protein in presence of NADPH by UPLC analysis. The data set is classed as ADME, Microsome. The settings on record: read-out: CLH.
Data set [2] deals with T1, Poly [ADP-ribose] polymerase tankyrase-2 (Homo sapiens, UniProt Q9H2K2).
T1 sequence (Q9H2K2 whole entry): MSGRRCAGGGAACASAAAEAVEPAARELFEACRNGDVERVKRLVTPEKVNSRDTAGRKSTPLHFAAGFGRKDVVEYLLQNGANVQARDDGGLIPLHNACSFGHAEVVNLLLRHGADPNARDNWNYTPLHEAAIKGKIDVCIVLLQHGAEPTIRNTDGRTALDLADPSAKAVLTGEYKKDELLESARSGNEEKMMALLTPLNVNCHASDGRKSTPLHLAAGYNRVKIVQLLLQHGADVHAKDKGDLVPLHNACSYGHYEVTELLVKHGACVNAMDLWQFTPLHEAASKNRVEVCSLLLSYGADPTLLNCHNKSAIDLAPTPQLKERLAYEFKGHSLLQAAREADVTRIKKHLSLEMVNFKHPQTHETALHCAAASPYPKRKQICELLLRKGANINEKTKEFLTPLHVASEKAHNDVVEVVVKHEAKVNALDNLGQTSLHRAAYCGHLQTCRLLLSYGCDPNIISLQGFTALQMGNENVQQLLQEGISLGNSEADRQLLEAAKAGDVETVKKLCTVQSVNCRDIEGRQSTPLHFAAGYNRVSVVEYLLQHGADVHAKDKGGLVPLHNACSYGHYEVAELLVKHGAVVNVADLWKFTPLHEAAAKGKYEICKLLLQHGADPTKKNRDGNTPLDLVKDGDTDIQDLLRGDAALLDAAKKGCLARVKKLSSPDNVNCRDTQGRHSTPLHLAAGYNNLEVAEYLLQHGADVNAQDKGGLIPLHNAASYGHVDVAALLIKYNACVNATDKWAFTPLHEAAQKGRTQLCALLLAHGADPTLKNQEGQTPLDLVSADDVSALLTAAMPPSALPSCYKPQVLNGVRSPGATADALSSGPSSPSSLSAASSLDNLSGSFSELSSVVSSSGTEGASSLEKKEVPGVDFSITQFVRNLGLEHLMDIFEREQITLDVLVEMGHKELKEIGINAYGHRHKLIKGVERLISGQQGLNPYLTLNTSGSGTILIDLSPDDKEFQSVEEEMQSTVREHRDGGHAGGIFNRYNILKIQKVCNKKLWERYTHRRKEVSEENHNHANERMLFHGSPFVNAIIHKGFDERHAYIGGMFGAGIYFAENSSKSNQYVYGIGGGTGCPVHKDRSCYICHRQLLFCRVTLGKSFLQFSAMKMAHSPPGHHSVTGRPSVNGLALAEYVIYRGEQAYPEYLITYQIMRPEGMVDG
As to the kind of experiment: biochemical.
Description: Inhibition of GST tagged-TEV cleavage site-fused human recombinant TNKS2 (873 to 1166 residues) expressed in baculovirus infected sf9 cells assessed as reduction in auto-PARsylation incubated for 60 mins in presence of bio-NAD as co-substrate by ELISA

Data set [3] can be described thus: Thermodynamic solubility in phosphate buffer at pH 7.4 at 2 mg incubated under shaking condition for 6 hrs followed by rechecking and readjusting pH to 7.4 and further incubated for 18 hrs by HPLC/UV detection method. In kind it is physicochemical. The settings on record: read-out: Therm_solubility.
Data set [4] addresses T2, Poly [ADP-ribose] polymerase 1 (Homo sapiens, UniProt P09874). As to the kind of experiment: Inhibition of recombinant human full-length Myc/His-tagged Parp-1 expressed in baculovirus infected Sf21 insect cells assessed as reduction in auto-PARsylation at 10 uM using activated DNA as substrate incubated for 150 mins in presence of NAD and bio-NAD as co-substrate by TR-FRET assay relative to control.

The target of the next data set is T3, Tankyrase 1/2 (Homo sapiens, UniProt Q9H2K2+O95271).
T3 sequence (Q9H2K2 whole entry): T1 sequence (Q9H2K2 whole entry)
T3 sequence (O95271 whole entry): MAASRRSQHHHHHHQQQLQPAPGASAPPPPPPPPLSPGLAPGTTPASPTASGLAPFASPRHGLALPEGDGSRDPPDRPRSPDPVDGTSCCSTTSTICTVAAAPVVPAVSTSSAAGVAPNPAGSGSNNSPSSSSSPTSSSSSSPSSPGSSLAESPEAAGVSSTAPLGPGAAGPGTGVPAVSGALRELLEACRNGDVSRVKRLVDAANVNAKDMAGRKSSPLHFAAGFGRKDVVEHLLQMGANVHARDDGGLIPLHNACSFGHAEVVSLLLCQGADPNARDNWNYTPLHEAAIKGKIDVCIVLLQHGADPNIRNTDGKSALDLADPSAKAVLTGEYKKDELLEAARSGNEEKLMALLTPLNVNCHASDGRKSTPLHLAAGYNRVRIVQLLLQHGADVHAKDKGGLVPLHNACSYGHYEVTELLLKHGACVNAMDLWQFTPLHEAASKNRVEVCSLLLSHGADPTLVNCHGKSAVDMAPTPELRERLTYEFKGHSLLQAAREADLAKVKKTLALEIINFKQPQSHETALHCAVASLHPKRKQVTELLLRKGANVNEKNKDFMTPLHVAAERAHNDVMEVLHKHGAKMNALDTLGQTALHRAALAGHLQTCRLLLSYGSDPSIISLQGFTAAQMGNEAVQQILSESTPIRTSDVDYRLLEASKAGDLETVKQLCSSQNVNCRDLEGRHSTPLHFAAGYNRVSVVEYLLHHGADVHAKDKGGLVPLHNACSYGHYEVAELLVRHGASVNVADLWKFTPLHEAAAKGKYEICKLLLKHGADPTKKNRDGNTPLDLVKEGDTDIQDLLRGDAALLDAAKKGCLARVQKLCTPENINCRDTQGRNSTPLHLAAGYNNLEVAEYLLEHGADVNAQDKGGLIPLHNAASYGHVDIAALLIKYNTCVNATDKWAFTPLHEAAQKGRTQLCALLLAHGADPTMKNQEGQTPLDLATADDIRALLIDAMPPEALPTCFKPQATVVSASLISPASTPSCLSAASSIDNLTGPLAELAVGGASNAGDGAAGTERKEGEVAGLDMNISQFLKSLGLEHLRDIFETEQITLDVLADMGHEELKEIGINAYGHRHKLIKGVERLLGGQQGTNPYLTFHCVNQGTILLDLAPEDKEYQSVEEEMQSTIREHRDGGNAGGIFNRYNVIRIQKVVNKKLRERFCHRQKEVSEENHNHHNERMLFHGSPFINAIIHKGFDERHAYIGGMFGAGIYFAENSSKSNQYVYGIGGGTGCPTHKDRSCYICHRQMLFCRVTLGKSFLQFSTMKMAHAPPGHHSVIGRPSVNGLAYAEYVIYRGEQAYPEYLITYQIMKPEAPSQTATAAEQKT

In data set [5] the target is T2, Poly [ADP-ribose] polymerase 1. As to the kind of experiment: Inhibition of recombinant human full-length Myc/His-tagged Parp-1 expressed in baculovirus infected Sf21 insect cells assessed as reduction in auto-PARsylation using activated DNA as substrate incubated for 150 mins in presence of NAD and bio-NAD as co-substrate by TR-FRET assay.
In data set [6] the target is T4, Poly [ADP-ribose] polymerase tankyrase-1 (Homo sapiens, UniProt O95271).
T4 sequence (O95271 whole entry): T3 sequence (O95271 whole entry)
Also noted: species or system Sf9.

Data set [7] in a line: Intrinsic clearance in human liver microsomes assessed per mg protein in presence of NADPH by UPLC analysis. In kind it is ADME, Microsome. The settings on record: read-out: CLH.
In data set [8] the target is Voltage-gated inwardly rectifying potassium channel KCNH2 (Homo sapiens, UniProt Q12809). As to the kind of experiment: Inhibition of human ERG expressed in HEK293 cells at -80 mV holding potential by whole cell patch clamp method. The data set is classed as cell-based.
Data set [9] has as its target T1, Poly [ADP-ribose] polymerase tankyrase-2. As to the kind of experiment: biochemical. This is another data set of the same source.
Description: Inhibition of GST tagged-TEV cleavage site-fused human recombinant TNKS2 (873 to 1166 residues) expressed in baculovirus infected Sf9 cells assessed as reduction in auto-PARsylation incubated for 90 mins in presence of bio-NAD as co-substrate by TR-FRET assay
Data set [10] deals with T4, Poly [ADP-ribose] polymerase tankyrase-1. As to the kind of experiment: biochemical.
Description: Inhibition of GST tagged-TEV cleavage site-fused human recombinant TNKS1 (1023 to 1327 residues) expressed in baculovirus infected Sf9 cells assessed as reduction in auto-PARsylation incubated for 90 mins in presence of bio-NAD as co-substrate by TR-FRET assay

T2 sequence (P09874 whole entry): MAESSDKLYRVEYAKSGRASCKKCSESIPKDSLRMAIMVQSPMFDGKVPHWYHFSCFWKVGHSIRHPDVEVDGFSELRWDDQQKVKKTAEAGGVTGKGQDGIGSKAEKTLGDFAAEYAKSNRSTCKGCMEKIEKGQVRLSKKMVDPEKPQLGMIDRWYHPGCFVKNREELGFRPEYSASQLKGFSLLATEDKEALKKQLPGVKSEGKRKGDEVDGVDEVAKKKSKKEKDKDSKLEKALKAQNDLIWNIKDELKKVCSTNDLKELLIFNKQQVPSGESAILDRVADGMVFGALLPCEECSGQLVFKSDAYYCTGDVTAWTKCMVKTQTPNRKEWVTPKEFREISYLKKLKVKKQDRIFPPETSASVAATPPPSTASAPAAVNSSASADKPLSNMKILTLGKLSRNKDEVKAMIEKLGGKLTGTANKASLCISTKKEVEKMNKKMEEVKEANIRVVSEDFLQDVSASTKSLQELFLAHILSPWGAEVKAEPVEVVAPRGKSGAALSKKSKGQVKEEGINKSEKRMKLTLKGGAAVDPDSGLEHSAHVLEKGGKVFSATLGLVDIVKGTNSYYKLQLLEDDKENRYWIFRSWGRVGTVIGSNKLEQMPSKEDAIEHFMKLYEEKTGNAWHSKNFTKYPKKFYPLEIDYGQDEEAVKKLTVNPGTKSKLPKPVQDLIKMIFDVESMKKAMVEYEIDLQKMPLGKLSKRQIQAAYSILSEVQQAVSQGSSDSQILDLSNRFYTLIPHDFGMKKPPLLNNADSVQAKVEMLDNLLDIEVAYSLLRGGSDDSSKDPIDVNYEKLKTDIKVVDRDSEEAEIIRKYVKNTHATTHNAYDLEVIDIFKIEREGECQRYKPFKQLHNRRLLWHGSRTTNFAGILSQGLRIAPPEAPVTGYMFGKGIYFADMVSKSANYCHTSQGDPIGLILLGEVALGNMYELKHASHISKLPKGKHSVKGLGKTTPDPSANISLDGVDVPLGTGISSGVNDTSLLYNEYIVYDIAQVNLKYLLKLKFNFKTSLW
Voltage-gated inwardly rectifying potassium channel KCNH2, sequence (Q12809 whole entry): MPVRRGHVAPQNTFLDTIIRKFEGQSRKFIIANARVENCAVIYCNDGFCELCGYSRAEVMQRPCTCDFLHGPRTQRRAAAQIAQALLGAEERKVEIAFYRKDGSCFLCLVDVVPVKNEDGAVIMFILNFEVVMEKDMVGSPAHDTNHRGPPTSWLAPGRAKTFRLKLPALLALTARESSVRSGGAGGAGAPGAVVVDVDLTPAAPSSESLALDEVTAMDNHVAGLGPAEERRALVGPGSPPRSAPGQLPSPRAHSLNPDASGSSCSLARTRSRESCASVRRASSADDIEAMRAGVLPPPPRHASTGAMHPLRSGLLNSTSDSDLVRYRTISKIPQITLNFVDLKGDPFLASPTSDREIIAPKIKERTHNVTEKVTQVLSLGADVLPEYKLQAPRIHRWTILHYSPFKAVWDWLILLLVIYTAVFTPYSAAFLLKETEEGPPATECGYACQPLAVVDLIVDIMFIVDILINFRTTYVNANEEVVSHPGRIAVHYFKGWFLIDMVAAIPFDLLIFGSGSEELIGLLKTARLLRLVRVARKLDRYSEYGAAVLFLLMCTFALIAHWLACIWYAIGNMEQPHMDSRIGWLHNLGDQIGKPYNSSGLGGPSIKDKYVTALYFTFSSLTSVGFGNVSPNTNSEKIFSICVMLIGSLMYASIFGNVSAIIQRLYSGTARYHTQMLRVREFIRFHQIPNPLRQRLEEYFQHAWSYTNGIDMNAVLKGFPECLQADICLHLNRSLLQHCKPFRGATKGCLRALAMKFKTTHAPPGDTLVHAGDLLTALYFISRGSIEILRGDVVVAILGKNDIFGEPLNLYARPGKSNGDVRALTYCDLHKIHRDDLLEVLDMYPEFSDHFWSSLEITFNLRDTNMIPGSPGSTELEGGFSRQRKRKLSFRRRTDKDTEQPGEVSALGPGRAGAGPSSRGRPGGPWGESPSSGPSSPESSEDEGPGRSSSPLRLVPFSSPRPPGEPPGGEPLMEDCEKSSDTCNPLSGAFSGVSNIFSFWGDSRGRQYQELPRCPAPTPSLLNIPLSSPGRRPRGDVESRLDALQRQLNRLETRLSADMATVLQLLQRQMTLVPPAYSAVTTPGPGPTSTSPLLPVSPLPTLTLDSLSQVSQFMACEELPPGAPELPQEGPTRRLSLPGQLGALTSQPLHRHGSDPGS
Description for Tankyrase 1/2: Inhibition of tankyrase 1/2 in human DLD1 cells assessed as increase in axin2 accumulation incubated for 24 hrs by luminex based bead assay

On to `CC(C)(C)c1ccc(-c2nc3ccccc3c(=O)[nH]2)cc1`, for which the microsomal CLint in [1] was < 10 µL/min/mg; in data set [7], 19 µL/min/mg. Further, the figures for the IC50 in data set [2], in [5] and in data set [6] were 8.7 nM, > 10000 nM and 7.9 nM, respectively. In addition, the solubility thermodynamic at 24 h in data set [3] is < 1 µg/mL. For the same compound, the inhibition in data set [4] amounted to 35%. Further, the concentration giving a half-maximal response (EC50) at Tankyrase 1/2 turned out to be 1500 nM.

Regarding `Cc1cc(F)cc2c(=O)[nH]c(-c3ccc(C4CCNCC4)cc3)nc12.Cl`, the values for the microsomal CLint in [1] and in data set [7] were 77 µL/min/mg and < 10 µL/min/mg, respectively. Further, the solubility thermodynamic at 24 h in data set [3] was found to be 44 µg/mL. Affinity in data set [8] was put at a Ki of 6800 nM. Also, the IC50 in data set [5] was 390 nM; in data set [6], 1.3 nM.

As to `O=c1[nH]c(-c2ccc3c(c2)OCO3)nc2ccccc12`, the IC50 worked out at 620 nM in [9], 430 nM in data set [10] and 1700 nM in data set [5]. The microsomal CLint worked out at 346 µL/min/mg in [1] and 83 µL/min/mg in data set [7]. In addition, in [3], the solubility thermodynamic at 24 h came out at 1 µg/mL (≈ 3.76 µM). Also, the EC50 on Tankyrase 1/2 was > 30000 nM.

As to `CN1CCC(c2ccc(-c3nc4c(F)cc(F)cc4c(=O)[nH]3)cc2)CC1.O=C(O)C(F)(F)F`, the microsomal CLint in [1] was 39 µL/min/mg; in data set [7], < 10 µL/min/mg. Besides, the IC50 worked out at 31 nM in data set [2], 3700 nM in data set [5] and 31 nM in data set [6]. Besides, the solubility thermodynamic at 24 h in data set [3] came to 65 µg/mL. On Tankyrase 1/2, this compound came in with an EC50 of 3900 nM.
